≈ marks a conversion by molar mass, not a printed value. Calls of active or inactive are those of the source. No cut-off for these calls is given here.
Columns and labels:
Assay type in all cases: functional, organism-based
[1] = test system: Human betaherpesvirus 5; assay: Tested for antiviral activity against HCMV in […] cells
[2] = test system: Human alphaherpesvirus 1; assay: Tested for antiviral activity against HSV-1 in CCL 81 cells
[3] = test system: Human immunodeficiency virus 1; assay: Tested for antiviral activity against HIV-1 in MT-4 cells; conditions: MT4
[4] = test system: Human alphaherpesvirus 2; assay: Tested for antiviral activity against HSV-2 in CCL 81 cells
[5] = test system: Human betaherpesvirus 5; assay: Tested for antiviral activity against HCMV in AD169 cell line; conditions: Human betaherpesvirus 5, AD169
[6] = test system: Human betaherpesvirus 5; assay: Tested for antiviral activity against HCMV in Davis cell line; conditions: Human betaherpesvirus 5, Davis

Row | EC50 [5] [µg/mL] | EC50 [6] [µg/mL] | Structure (SMILES) | Activity [1] | Activity [2] | Activity [3] | Activity [4]
1 | – | – | [N-]=[N+]=N[C@H]1C[C@H](CO)S[C@@H]1n1cnc2c(N)ncnc21 | Significant activity | inactive | inactive | inactive
2 | – | – | [N-]=[N+]=N[C@@H]1C[C@@H](CO)S[C@@H]1n1cnc2c(Cl)ncnc21 | Significant activity | inactive | inactive | inactive
3 | – | – | CC(C)(C)[Si](OC[C@H]1C[C@H](N=[N+]=[N-])[C@H](n2ccc(NC(=O)c3ccccc3)nc2=O)S1)(c1ccccc1)c1ccccc1 | Significant activity | inactive | inactive | inactive
4 | – | – | [N-]=[N+]=N[C@@H]1C[C@@H](CO)S[C@@H]1n1cnc2c(N)ncnc21 | Significant activity | inactive | inactive | inactive
5 | 26.1 (≈ 85.2 µM) | 90.2 (≈ 294 µM) | CNc1ncnc2c1ncn2[C@@H]1S[C@H](CO)C[C@H]1N=[N+]=[N-] | – | – | – | –
6 | – | – | [N-]=[N+]=N[C@H]1C[C@H](CO)S[C@H]1n1ccc(=O)[nH]c1=O | Significant activity | inactive | inactive | inactive
7 | – | – | [N-]=[N+]=N[C@H]1C[C@H](CO)S[C@@H]1n1cnc2c(Cl)ncnc21 | Significant activity | inactive | inactive | inactive
8 | 0.98 (≈ 3.84 µM) | 4.07 (≈ 15.9 µM) | Nc1nc2c(ncn2COC(CO)CO)c(=O)[nH]1 [GANCICLOVIR] | – | – | – | –
9 | – | – | [N-]=[N+]=N[C@H]1C[C@H](CO)S[C@H]1n1cnc2c(Cl)ncnc21 | Significant activity | inactive | inactive | inactive
10 | – | – | CC(C)(C)[Si](OC[C@H]1C[C@H](N=[N+]=[N-])[C@@H](n2ccc(NC(=O)c3ccccc3)nc2=O)S1)(c1ccccc1)c1ccccc1 | Significant activity | inactive | inactive | inactive
11 | 19.1 (≈ 62.5 µM) | 25.8 (≈ 84.2 µM) | CNc1ncnc2c1ncn2[C@H]1S[C@H](CO)C[C@H]1N=[N+]=[N-] | – | – | – | –
12 | – | – | [N-]=[N+]=N[C@H]1C[C@H](CO)S[C@@H]1n1cnc2c(O)ncnc21 | Significant activity | inactive | inactive | inactive
13 | – | – | [N-]=[N+]=N[C@@H]1C[C@@H](CO)S[C@H]1n1cnc2c(Cl)ncnc21 | Significant activity | inactive | inactive | inactive
14 | – | – | CNc1ncnc2c1ncn2[C@@H]1S[C@@H](CO)C[C@@H]1N=[N+]=[N-] | Significant activity | inactive | inactive | inactive
15 | – | – | [N-]=[N+]=N[C@H]1C[C@H](CO)S[C@H]1n1ccc(N)nc1=O | Significant activity | inactive | inactive | inactive
16 | – | – | [N-]=[N+]=N[C@H]1C[C@H](CO)S[C@H]1n1cnc2c(N)ncnc21 | Significant activity | inactive | inactive | inactive
17 | – | – | [N-]=[N+]=N[C@H]1C[C@H](COC(=O)c2ccccc2)S[C@H]1n1ccc(=O)n(C(=O)c2ccccc2)c1=O | Significant activity | inactive | inactive | inactive
18 | – | – | [N-]=[N+]=N[C@H]1C[C@H](COC(=O)c2ccccc2)S[C@@H]1n1ccc(=O)n(C(=O)c2ccccc2)c1=O | Significant activity | inactive | inactive | inactive
19 | – | – | [N-]=[N+]=N[C@@H]1C[C@@H](CO)S[C@H]1n1cnc2c(N)ncnc21 | Significant activity | inactive | inactive | inactive
20 | – | – | [N-]=[N+]=N[C@H]1C[C@H](CO)S[C@H]1n1cnc2c(O)ncnc21 | Significant activity | inactive | inactive | inactive
21 | – | – | CNc1ncnc2c1ncn2[C@H]1S[C@@H](CO)C[C@@H]1N=[N+]=[N-] | Significant activity | inactive | inactive | inactive
22 | – | – | Cc1cn([C@@H]2S[C@@H](CO)C[C@@H]2N=[N+]=[N-])c(=O)[nH]c1=O | Significant activity | inactive | inactive | inactive
23 | – | – | [N-]=[N+]=N[C@H]1C[C@H](CO)S[C@@H]1n1ccc(N)nc1=O | Significant activity | inactive | inactive | inactive
24 | – | – | [N-]=[N+]=N[C@H]1C[C@H](CO)S[C@@H]1n1ccc(=O)[nH]c1=O | Significant activity | inactive | inactive | inactive
25 | – | – | Cc1cn([C@H]2S[C@@H](CO)C[C@@H]2N=[N+]=[N-])c(=O)[nH]c1=O | Significant activity | inactive | inactive | inactive
26 | – | – | CC(=O)OC1S[C@@H](CO[Si](c2ccccc2)(c2ccccc2)C(C)(C)C)C[C@@H]1N=[N+]=[N-] (stereo partly drawn) | inactive | inactive | inactive | inactive

Reference: ChEMBL document CHEMBL1134207, “Synthesis and antiviral activity of novel D- and L-2'-azido-2',3'-dideoxyribofuranosyl-4'-thiopyrimidines and purines” (Bioorg Med Chem Lett, 2001)
